24 molecules from PubChem BioAssay (NCI) can be followed below.

Some test systems named below: DU-145 prostate; KM12 colon; MDA-MB-435; NCI/ADR-RES ovarian; T-47D breast.
Common to all, as to assay: NCI-60 cell line screen, 48 h

Structures are written as SMILES.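 All cell lines were grown in 96-well plates and treated with compound for 48 hours. GI50 marks 50% less growth. The concentration for full growth arrest is given as TGI.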

Take `N=c1ccn2c(n1)OC1C(OP(=O)(O)O)C(CO)OC12` (stereo unspecified): the TGI with DU-145 prostate, in the assay with KM12 colon, with MDA-MB-435, in the assay with NCI/ADR-RES ovarian and in the assay with T-47D breast was above 100 µM throughout.

For the molecule `O=c1[nH]cnc2c(C3OC(CO)C(O)C3O)[nH]nc12` (stereo unspecified), the TGI is 38.2 µM with DU-145 prostate; above 100 µM with KM12 colon; above 100 µM in the assay on MDA-MB-435; above 100 µM with NCI/ADR-RES ovarian; above 100 µM with T-47D breast.

Turning to `COc1cc2c(c(OC)c1OC)-c1ccc([O-])c(=O)cc1[C@@H](NC(C)=O)CC2.COc1cc2c(c(OC)c1OC)-c1ccc([O-])c(=O)cc1[C@@H](NC(C)=O)CC2.[Cu+2]`, the GI50 with DU-145 prostate was 2.7 µM; with KM12 colon, 1.87 µM; in the assay on NCI/ADR-RES ovarian it was 6.16 µM; in the assay on T-47D breast, 7.95 µM. The TGI was 7.21 µM with DU-145 prostate, 5.52 µM with KM12 colon, 51.8 µM with NCI/ADR-RES ovarian and above 100 µM in the assay with T-47D breast.

As to `Nc1nc(N)c2nc(CNc3ccc(C(=O)CC(CCC(=O)O)C(=O)O)cc3)cnc2n1` (stereo unspecified), the GI50 was 2.24 µM in the assay with DU-145 prostate; 0.232 µM in the assay with KM12 colon; 0.137 µM in the assay with MDA-MB-435; 0.224 µM in the assay with NCI/ADR-RES ovarian; above 100 µM in the assay with T-47D breast. The TGI in the assay with DU-145 prostate, in the assay on KM12 colon, in the assay with MDA-MB-435, in the assay on NCI/ADR-RES ovarian and in the assay with T-47D breast was above 100 µM throughout.

On to `Cc1cc(N(CCOS(C)(=O)=O)CCOS(C)(=O)=O)ccc1C=Nc1ccc(-c2csc(-c3ccccc3)n2)c(Cl)c1`, for which the TGI with DU-145 prostate was 35.6 µM; in the assay on KM12 colon, 27.2 µM; in the assay on MDA-MB-435 it was 38 µM; with NCI/ADR-RES ovarian, 71.5 µM; in the assay on T-47D breast, above 85.2 µM.

`CN1CCN(C(=O)c2ccc(NC(=O)Nc3ccc(N(C)c4ccnc(Nc5ccc(CS(C)(=O)=O)cc5)n4)cc3)cc2)CC1`: the GI50 was 8.78 µM in the assay on DU-145 prostate; 7.33 µM in the assay with KM12 colon; above 25 µM in the assay on MDA-MB-435; above 25 µM with NCI/ADR-RES ovarian; 4.68 µM in the assay on T-47D breast. Also, the TGI in the assay on DU-145 prostate is above 25 µM; in the assay with KM12 colon it was above 25 µM; in the assay on MDA-MB-435 it was above 25 µM; in the assay with NCI/ADR-RES ovarian, above 25 µM; in the assay with T-47D breast, 19.7 µM.

As to `NCCCNc1ccc2c(c1)[n+]([O-])c1ccccc1[n+]2[O-]`, the TGI in the assay with DU-145 prostate is 70.8 µM; with KM12 colon, 80.3 µM; with MDA-MB-435, above 100 µM; with NCI/ADR-RES ovarian it was above 100 µM; in the assay on T-47D breast, 69.6 µM.

As for `COc1cc2[nH]c(C(=O)c3cc(OC)c(OC)c(OC)c3)c(N)c2cc1C#CCO`, in the assay on KM12 colon, the GI50 was 0.334 µM and the TGI is above 100 µM. For the same molecule, in the assay on NCI/ADR-RES ovarian, the GI50 was 2.22 µM and the TGI is 32.6 µM.

With `Nc1ccccc1NC(=O)c1ccc(CSc2nc(N3CCOCC3)c3cccn3n2)cc1`, the GI50 in the assay on DU-145 prostate was 1.63 µM; in the assay on KM12 colon it was 1.14 µM; with MDA-MB-435 it was 0.27 µM; in the assay with NCI/ADR-RES ovarian, 0.445 µM; with T-47D breast it was 0.498 µM. Also, the TGI is 37.7 µM in the assay with DU-145 prostate; above 100 µM in the assay with KM12 colon; 1 µM in the assay with MDA-MB-435; above 100 µM in the assay on NCI/ADR-RES ovarian; above 100 µM with T-47D breast.

`COc1ccc(NC(=O)C(=O)C(CC2C(=O)NC(=S)NC2=O)C(=O)c2ccc3ccccc3c2)c([N+](=O)[O-])c1` (stereo unspecified): the TGI in the assay on DU-145 prostate, in the assay with KM12 colon, in the assay with MDA-MB-435, in the assay on NCI/ADR-RES ovarian and with T-47D breast was above 100 µM each time.

Regarding `O=S(=O)(NCCNc1cc(-c2cn(-c3ccccc3)nc2-c2cccc(O)c2)ccn1)c1ccc(C(F)(F)F)cc1`, the GI50 is 4.44 µM in the assay on DU-145 prostate; 2.62 µM in the assay with KM12 colon; 2.4 µM in the assay with MDA-MB-435; 3.21 µM with NCI/ADR-RES ovarian; 1.84 µM with T-47D breast. For the same molecule, the TGI in the assay with DU-145 prostate was 15.9 µM; with KM12 colon, 7.98 µM; with MDA-MB-435, 7.63 µM; with NCI/ADR-RES ovarian, 16.6 µM; with T-47D breast, 6.73 µM.

Take `CC[C@H](C)c1occ2c(O)c(C(=O)O)c(=O)cc-2c1C`: the TGI is above 100 µM with DU-145 prostate; 35.7 µM in the assay with KM12 colon; 58 µM with MDA-MB-435; 50.4 µM in the assay on NCI/ADR-RES ovarian; 56.4 µM in the assay with T-47D breast.

In the case of `CCCCCCN(CCCCCC)C(=N)c1ccnc2ccccc12`, the GI50 in the assay with DU-145 prostate was 13.5 µM; in the assay with KM12 colon, 3.95 µM; with MDA-MB-435 it was 3.21 µM; with NCI/ADR-RES ovarian, 5.84 µM; with T-47D breast it was 3.04 µM. For the same molecule, the TGI with DU-145 prostate was determined as 26.6 µM; in the assay with KM12 colon, 15.2 µM; in the assay on MDA-MB-435 it was 14.7 µM; in the assay on NCI/ADR-RES ovarian it was 21.1 µM; in the assay with T-47D breast, 13.2 µM.

With `COc1cccc(-c2nn(-c3ccccc3)cc2-c2ccnc(NCCNS(=O)(=O)c3ccc(C(F)(F)F)cc3)c2)c1`, the GI50 in the assay with DU-145 prostate is 5.09 µM; in the assay with KM12 colon, 3.02 µM; in the assay on MDA-MB-435, 3.23 µM; in the assay with NCI/ADR-RES ovarian it was 2.79 µM; in the assay with T-47D breast, 2.36 µM. In addition, the TGI in the assay with DU-145 prostate was above 100 µM; in the assay with KM12 colon, 16.7 µM; in the assay on MDA-MB-435, 17.5 µM; in the assay on NCI/ADR-RES ovarian it was 14.4 µM; with T-47D breast it was 7.55 µM.

Regarding `CON(C)C(=O)C(Cc1ccccc1)NC(=O)OC(C)(C)C` (stereo unspecified), the TGI with DU-145 prostate, in the assay on KM12 colon, in the assay on MDA-MB-435, in the assay with NCI/ADR-RES ovarian and in the assay with T-47D breast was above 100 µM in each case.

As for `COc1ccc(C(=S)c2cc(OC)c(OC)c(OC)c2)cc1OC(=O)CCl`, the GI50 is 0.0311 µM in the assay on DU-145 prostate; below 0.01 µM in the assay on KM12 colon; below 0.01 µM in the assay with MDA-MB-435; below 0.0127 µM in the assay on NCI/ADR-RES ovarian; 22.1 µM in the assay with T-47D breast. Moreover, the TGI was above 100 µM with DU-145 prostate; above 100 µM in the assay with KM12 colon; below 0.0108 µM in the assay on MDA-MB-435; above 100 µM in the assay on NCI/ADR-RES ovarian; 79.9 µM in the assay with T-47D breast.

Turning to `CCN(Cc1ccc(F)cc1)c1ccc(CO)c(Cl)c1`, the GI50 was 15.2 µM in the assay on DU-145 prostate; 16.3 µM in the assay on KM12 colon; 19.9 µM with MDA-MB-435; 11.6 µM in the assay on NCI/ADR-RES ovarian; 0.0821 µM with T-47D breast. Also, the TGI is above 49.2 µM in the assay on DU-145 prostate; 40.3 µM in the assay with KM12 colon; 73.2 µM in the assay with MDA-MB-435; 34.4 µM in the assay with NCI/ADR-RES ovarian; 0.472 µM with T-47D breast.

In the case of `O=C1CN(c2cccc(C(F)(F)F)c2)C(=O)CN1NCNN1CC(=O)N(c2cccc(C(F)(F)F)c2)CC1=O`, the TGI in the assay on KM12 colon, in the assay with MDA-MB-435, in the assay on NCI/ADR-RES ovarian and with T-47D breast was above 100 µM each time.

For the molecule `C=C1C(=O)O[C@@H]2[C@H]1CC[C@H](C)[C@]1(O)CCC(=O)[C@@]21C`, the TGI in the assay on KM12 colon, with MDA-MB-435, in the assay with NCI/ADR-RES ovarian and with T-47D breast was above 10 µM each time.

On to `CCCCCCCCN(CCCCCCCC)C(=N)c1ccnc2ccccc12`, for which the GI50 in the assay on DU-145 prostate is 1.08 µM; with MDA-MB-435, 0.302 µM; in the assay on NCI/ADR-RES ovarian, 1.15 µM; in the assay on T-47D breast, 1.24 µM. Moreover, the TGI in the assay on DU-145 prostate turned out to be 2.31 µM; in the assay with MDA-MB-435, 1.07 µM; in the assay with NCI/ADR-RES ovarian, 2.5 µM; with T-47D breast, 2.93 µM.

Turning to `C[C@H](c1ccc(Cl)cc1N)N1C(=O)c2cc(I)ccc2N(CCCN2CCN(C)CC2)C(=O)[C@@H]1c1ccc(Cl)cc1`, the GI50 in the assay with DU-145 prostate is 1.79 µM; in the assay with KM12 colon, 1.78 µM; with MDA-MB-435, 1.81 µM; in the assay with NCI/ADR-RES ovarian it was 1.7 µM. Also, the TGI in the assay on DU-145 prostate was found to be 3.31 µM; in the assay on KM12 colon it was 3.24 µM; with MDA-MB-435, 3.57 µM; in the assay on NCI/ADR-RES ovarian, 3.6 µM.

Turning to `CCN1C(=O)N(CC)C2C1NN=c1s/c(=C3\C(=O)N(CCC(C)C)c4ccccc43)c(=O)n12` (stereo unspecified), the GI50 in the assay on DU-145 prostate is 2.91 µM; in the assay with KM12 colon it was 0.616 µM; in the assay on MDA-MB-435 it was 0.308 µM. Besides, the TGI in the assay on DU-145 prostate worked out at 9.33 µM; with KM12 colon, 11.4 µM; with MDA-MB-435, 1.14 µM.

For `Cc1ccc(-c2csc(N(C(=O)N3CCN(c4cc5c(cc4F)c(=O)c(C(=O)O)cn5C4CC4)CC3)c3ccccc3)n2)cc1`, the GI50 was 0.46 µM in the assay with DU-145 prostate, 0.371 µM with KM12 colon and 0.381 µM in the assay with T-47D breast. Also, the TGI with DU-145 prostate, in the assay with KM12 colon and in the assay with T-47D breast was above 100 µM throughout.

In the case of `C/C(=C\c1ccn(-c2ccc(N)c(C(F)(F)F)c2)n1)[C@@H]1C[C@@H]2O[C@]2(C)CCC[C@H](C)[C@H](O)[C@@H](C)C(=O)C(C)(C)[C@@H](O)CC(=O)O1`, the GI50 is 0.0113 µM with DU-145 prostate, 0.00869 µM with KM12 colon, 0.0624 µM in the assay with NCI/ADR-RES ovarian and 0.0164 µM in the assay on T-47D breast. The TGI was 0.0969 µM in the assay with DU-145 prostate, above 32.5 µM in the assay on KM12 colon, 8.31 µM with NCI/ADR-RES ovarian and 28.3 µM in the assay with T-47D breast.
